Among the data in US20260297542A1, “HERBICIDE RESISTANT PLANTS” (SYNGENTA CROP PROTECTION AG, priority 2023, published 2026) are inhibition values, retold here.

Holding throughout (test): E. coli hemG growth inhibition by herbicide, AtPPO1 variant
Holding throughout (format): cell-based
Settings in all cases: read-out: percentage growth inhibition

For experiment [1], the target named is T1, AtPPO1 G481D (Arabidopsis thaliana, UniProt P55826, G481D).
T1 construct: expressed in transfected cells; host or cells: E. coli BL21(DE3) hemG, pET24a plasmid
T1 sequence (P55826 35-537 G481D): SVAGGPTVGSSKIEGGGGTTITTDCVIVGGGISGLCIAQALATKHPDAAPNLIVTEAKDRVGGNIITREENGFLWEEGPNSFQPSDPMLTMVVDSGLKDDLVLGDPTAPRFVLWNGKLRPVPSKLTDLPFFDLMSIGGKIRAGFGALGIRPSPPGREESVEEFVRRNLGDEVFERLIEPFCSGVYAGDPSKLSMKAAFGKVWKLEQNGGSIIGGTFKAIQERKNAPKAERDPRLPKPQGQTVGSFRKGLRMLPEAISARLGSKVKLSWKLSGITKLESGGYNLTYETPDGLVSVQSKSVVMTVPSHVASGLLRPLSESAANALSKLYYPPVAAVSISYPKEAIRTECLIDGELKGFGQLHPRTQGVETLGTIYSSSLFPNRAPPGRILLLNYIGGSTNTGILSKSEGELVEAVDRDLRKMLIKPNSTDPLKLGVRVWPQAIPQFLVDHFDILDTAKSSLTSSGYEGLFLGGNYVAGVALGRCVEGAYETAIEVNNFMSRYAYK
An excerpt:
(§1) A pET24a plasmid containing a DNA sequence encoding a variant of PPO1 derived from Arabidopsis thaliana (AtPPO1), codon-optimised for expression in E. coli and under control of a T7 promoter, was synthesised by Twist Bioscience (SEQ ID NO:3). This plasmid was used as the basis of a Site Saturation Variant Library (SSVL) that substituted the codons at 352 amino acid positions for codons that encoded one of the other 19 amino acids, or removed the codon altogether, resulting in a translation product with a deletion at that position.
(§2) The SSVL was batch-transformed by electroporation into an E. coli BL21(DE3) hemG strain with the hemG gene replaced by CmR conferring resistance to chloramphenicol and spread onto LA supplemented with 50 μg/mL kanamycin, 25 μg/mL chloramphenicol and 20 μg/mL hematin. Each batch consisted of all the plasmids that contained variants at two sites.
(§3) Colonies from batch transformations were inoculated into 500 μL of Terrific broth supplemented with 50 μg/mL kanamycin, 25 μg/mL chloramphenicol and 20 μg/mL hematin in 96-deepwell blocks. Cultures were grown for 24 hours at 37° C. with shaking at 250 rpm.
(§4) Overnight cultures were centrifuged and the cell pellets resuspended with 500 μL of Terrific broth. The resuspended cultures were used at a ratio of 1:100 to inoculate a fresh 96-deepwell block containing 500 μL of Terrific broth supplemented with 0.1 mM IPTG, 50 μg/mL kanamycin, 25 μg/mL chloramphenicol and 6.25 ppm of herbicide […] or E or 0.78 ppm herbicide B or DMSO. Assay cultures were grown for 24 hours at 37° C. with shaking at 250 rpm with the OD600 being measured at 24 hours post inoculation. Strains that grew in both DMSO and herbicide were determined to be herbicide tolerant with the percentage of growth inhibition being calculated as below: […]

For experiment [2], the target named is T2, AtPPO1 V447I (Arabidopsis thaliana, UniProt P55826, V447I).
T2 construct: expressed in transfected cells; host or cells: E. coli BL21(DE3) hemG (pET24a, T7 promoter)
T2 sequence (P55826 35-537 V447I): T1 sequence (P55826 35-537 G481D) with V413I, D447G
Description: as §1, §2, §3, §4

Experiment [3] has as its target T3, AtPPO1 L479N (Arabidopsis thaliana, UniProt P55826, L479N).
T3 construct: expressed in transfected cells; host or cells: E. coli BL21(DE3) hemG, pET24a plasmid
T3 sequence (P55826 35-537 L479N): T1 sequence (P55826 35-537 G481D) with L445N, D447G
Description: as §1, §2, §3, §4

The target in experiment [4] is T4, AtPPO1 T431F (Arabidopsis thaliana, UniProt P55826, T431F).
T4 construct: expressed in transfected cells; host or cells: E. coli BL21(DE3) hemG, pET24a plasmid
T4 sequence (P55826 35-537 T431F): T1 sequence (P55826 35-537 G481D) with T397F, D447G
Description: as §1, §2, §3, §4

Changes are numbered by the printed parent chain.

What is called inhibition is the relative decrease from the control value, in per cent. For the compound `C#CCN1C(=O)C(F)(F)Oc2cc(F)c(-n3c(=O)n(C)c(=S)n(C)c3=O)cc21` [Herbicide B, trifludimoxazin], the inhibition at 0.78 ppm was 40% in experiment [1], 35% in experiment [2], 23% in experiment [3] and 41% in experiment [4].

`CCOC(=O)[C@]1(C)CC(c2cc(-n3c(=O)n(C)c(=S)n(C)c3=O)c(F)cc2Cl)=NO1` [Herbicide D, ethyl (5S)-3-[2-chloro-5-(3,5-dimethyl-2,6-dioxo-4-thioxo-1,3,5-triazinan-1-yl)-4-fluoro-phenyl]-5-methyl-4H-isoxazole-5-carboxylate]: the inhibition at 6.25 ppm amounted to 20% in experiment [1], 36% in experiment [2], 3% in experiment [3] and 0% in experiment [4].

As for `CC(C)N(C)S(=O)(=O)NC(=O)c1cc(-n2c(=O)cc(C(F)(F)F)n(C)c2=O)c(F)cc1Cl` [Herbicide E, saflufenacil], the inhibition at 6.25 ppm in experiment [1] came to 16%; in experiment [2], 61%; in experiment [3], 31%; in experiment [4], 37%.
